Counter-ions that a name gives are not always drawn.
Experiments:
rh beta tryptase = biological target: T1, rh beta tryptase (Homo sapiens, UniProt Q15661); assay: tryptase inhibition test (cleavage of N-p-tosyl-Gly-Pro-Lys-para-nitroaniline, p-nitroaniline measured at 405 nm); format: biochemical; conditions: Tris HCl buffer pH 7.4 with calcium and heparin; substrate 0.6 mM; 5 minutes' pre-incubation, 5 minutes incubation at 37° C.
T1 construct: purchased Promega
Outline: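 Run in 100 mM Tris HCl, pH 7.4, with 5 mM calcium and […] heparin, enzyme at 0.91 U/ml and 0.6 mM substrate. Compounds pre-incubated 5 min, then substrate added; p-nitroaniline read after 5 min at 37° C. Screening at 10 μM gives % inhibition; IC50 determined where inhibition exceeds 70%.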

T1 sequence (Q15661 31-275): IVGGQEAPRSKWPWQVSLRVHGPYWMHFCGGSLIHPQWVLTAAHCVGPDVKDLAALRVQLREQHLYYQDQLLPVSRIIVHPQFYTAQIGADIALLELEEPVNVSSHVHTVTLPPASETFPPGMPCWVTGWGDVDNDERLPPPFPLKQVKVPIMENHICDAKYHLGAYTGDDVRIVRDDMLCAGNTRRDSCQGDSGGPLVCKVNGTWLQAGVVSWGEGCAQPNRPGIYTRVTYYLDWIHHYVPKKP

| Structure (SMILES) | melting point [°C] | IC50 (rh beta tryptase) [nM] |
| --- | --- | --- |
| Cn1c(CCc2ccc(C(=N)N)cc2)nc2cc(NC(=O)C(N)Cc3ccc(C(=N)N)cc3)ccc21 (stereo not drawn) (as salt: hydrochloride) [Example 4, N-{2-[2-(4-Amidinophenyl)-ethyl]-1-methyl-benzimidazol-5-yl}-[2-amino-3-(p-amidinophenyl)-propionic Acid Amide]-trihydrochloride] | > 260 | – |
| CC(C)CN(C(=O)CCc1ccc(C(=N)N)cc1)c1ccc2c(c1)nc(CCc1ccc(C(=N)N)cc1)n2C (as salt: hydrochloride) [Example 5, N-{2-[2-(4-Amidinophenyl)-ethyl]-1-methyl-benzimidazol-5-yl}-N-isobutyl-[3-(4-amidinophenyl)-propionamide]-dihydrochloride] | > 220 | – |
| CN(C)CCCC(=O)N(Cc1cccc2ccccc12)c1ccc2c(c1)nc(CCc1ccc(C(=N)N)cc1)n2C [Example 29, N-{2-[2-(4-Amidinophenyl)-ethyl]-1-methyl-benzimidazol-5-yl}-N-( - naphthylmethyl)-[4-dimethylamino-butanoic acid amide]-dihydrochloride] | – | 38 |

Reference: US6407130B1, “Carboxamide-substituted benzimidazoles having tryptase-inhibiting activity” (Boehringer Ingelheim Pharma KG, priority 1999, dated 2002)
